From the NIST ThermoML archive (doi:10.1016/j.jct.2004.12.014)
Numbers after ± are expanded uncertainties.

Legend:
[1] = xn = mol fraction of the nth substance listed; conditions: 318.15 K, 101 kPa, Liquid
[2] = excess molar enthalpy (molar enthalpy of mixing); xn = mol fraction of the nth substance listed; conditions: 318.15 K, 101 kPa, Liquid

Structure (SMILES): CCCOC(=O)CC [propyl propanoate] + CCCCCCCCC
- excess molar volume ([1]; x1 = 0.0358): 1.43e-07 ± 1.6e-08 m3/mol
- excess molar volume ([1]; x1 = 0.0804): 2.79e-07 ± 1.7e-08 m3/mol
- excess molar volume ([1]; x1 = 0.1547): 4.77e-07 ± 1.8e-08 m3/mol
- excess molar volume ([1]; x1 = 0.2247): 6.11e-07 ± 1.8e-08 m3/mol
- excess molar volume ([1]; x1 = 0.2939): 7.16e-07 ± 1.9e-08 m3/mol
- excess molar volume ([1]; x1 = 0.3601): 7.97e-07 ± 1.9e-08 m3/mol
- excess molar volume ([1]; x1 = 0.4243): 8.28e-07 ± 1.9e-08 m3/mol
- excess molar volume ([1]; x1 = 0.4879): 8.32e-07 ± 1.9e-08 m3/mol
- excess molar volume ([1]; x1 = 0.5463): 8.3e-07 ± 1.9e-08 m3/mol
- excess molar volume ([1]; x1 = 0.6022): 7.94e-07 ± 1.9e-08 m3/mol
- excess molar volume ([1]; x1 = 0.6569): 7.54e-07 ± 1.9e-08 m3/mol
- excess molar volume ([1]; x1 = 0.7113): 6.79e-07 ± 1.9e-08 m3/mol
- excess molar volume ([1]; x1 = 0.7635): 6.03e-07 ± 1.8e-08 m3/mol
- excess molar volume ([1]; x1 = 0.8139): 4.89e-07 ± 1.8e-08 m3/mol
- excess molar volume ([1]; x1 = 0.8623): 4.1e-07 ± 1.7e-08 m3/mol
- excess molar volume ([1]; x1 = 0.9092): 3.02e-07 ± 1.7e-08 m3/mol
- excess molar volume ([1]; x1 = 0.9537): 1.55e-07 ± 1.6e-08 m3/mol
- excess molar enthalpy ([2]; x1 = 0.0729): 0.308 ± 0.0065 kJ/mol
- excess molar enthalpy ([2]; x1 = 0.1505): 0.544 ± 0.01 kJ/mol
- excess molar enthalpy ([2]; x1 = 0.2274): 0.75 ± 0.013 kJ/mol
- excess molar enthalpy ([2]; x1 = 0.3035): 0.903 ± 0.016 kJ/mol
- excess molar enthalpy ([2]; x1 = 0.3733): 0.999 ± 0.017 kJ/mol
- excess molar enthalpy ([2]; x1 = 0.4372): 1.05 ± 0.018 kJ/mol
- excess molar enthalpy ([2]; x1 = 0.4858): 1.06 ± 0.018 kJ/mol
- excess molar enthalpy ([2]; x1 = 0.5248): 1.05 ± 0.018 kJ/mol
- excess molar enthalpy ([2]; x1 = 0.5688): 1.04 ± 0.018 kJ/mol
- excess molar enthalpy ([2]; x1 = 0.6152): 1 ± 0.017 kJ/mol
- excess molar enthalpy ([2]; x1 = 0.6667): 0.933 ± 0.016 kJ/mol
- excess molar enthalpy ([2]; x1 = 0.7215): 0.829 ± 0.014 kJ/mol
- excess molar enthalpy ([2]; x1 = 0.7776): 0.708 ± 0.013 kJ/mol
- excess molar enthalpy ([2]; x1 = 0.8356): 0.566 ± 0.01 kJ/mol
- excess molar enthalpy ([2]; x1 = 0.8948): 0.389 ± 0.0077 kJ/mol
- excess molar enthalpy ([2]; x1 = 0.951): 0.199 ± 0.0048 kJ/mol

Structure (SMILES): CCCCCCCCCCCCCCCCC [heptadecane] + CCC(=O)OC
- excess molar volume ([1]; x2 = 0.0755): 3.32e-07 ± 1.7e-08 m3/mol
- excess molar volume ([1]; x2 = 0.1644): 6.94e-07 ± 1.9e-08 m3/mol
- excess molar volume ([1]; x2 = 0.3049): 1.182e-06 ± 2.1e-08 m3/mol
- excess molar volume ([1]; x2 = 0.409): 1.452e-06 ± 2.2e-08 m3/mol
- excess molar volume ([1]; x2 = 0.5004): 1.581e-06 ± 2.3e-08 m3/mol
- excess molar volume ([1]; x2 = 0.5739): 1.623e-06 ± 2.3e-08 m3/mol
- excess molar volume ([1]; x2 = 0.6379): 1.592e-06 ± 2.3e-08 m3/mol
- excess molar volume ([1]; x2 = 0.6942): 1.504e-06 ± 2.2e-08 m3/mol
- excess molar volume ([1]; x2 = 0.7425): 1.39e-06 ± 2.2e-08 m3/mol
- excess molar volume ([1]; x2 = 0.7831): 1.271e-06 ± 2.1e-08 m3/mol
- excess molar volume ([1]; x2 = 0.8219): 1.128e-06 ± 2.1e-08 m3/mol
- excess molar volume ([1]; x2 = 0.8553): 9.81e-07 ± 2e-08 m3/mol
- excess molar volume ([1]; x2 = 0.8846): 8.56e-07 ± 1.9e-08 m3/mol
- excess molar volume ([1]; x2 = 0.9369): 5.66e-07 ± 1.8e-08 m3/mol
- excess molar volume ([1]; x2 = 0.9596): 4.18e-07 ± 1.7e-08 m3/mol
- excess molar volume ([1]; x2 = 0.9803): 2.34e-07 ± 1.7e-08 m3/mol
- excess molar enthalpy ([2]; x2 = 0.0946): 0.552 ± 0.01 kJ/mol
- excess molar enthalpy ([2]; x2 = 0.2186): 1.16 ± 0.02 kJ/mol
- excess molar enthalpy ([2]; x2 = 0.3238): 1.62 ± 0.027 kJ/mol
- excess molar enthalpy ([2]; x2 = 0.4115): 1.91 ± 0.031 kJ/mol
- excess molar enthalpy ([2]; x2 = 0.4797): 2.06 ± 0.034 kJ/mol
- excess molar enthalpy ([2]; x2 = 0.5289): 2.12 ± 0.035 kJ/mol
- excess molar enthalpy ([2]; x2 = 0.5687): 2.15 ± 0.035 kJ/mol
- excess molar enthalpy ([2]; x2 = 0.5996): 2.15 ± 0.035 kJ/mol
- excess molar enthalpy ([2]; x2 = 0.6291): 2.13 ± 0.035 kJ/mol
- excess molar enthalpy ([2]; x2 = 0.6637): 2.09 ± 0.034 kJ/mol
- excess molar enthalpy ([2]; x2 = 0.6974): 2.01 ± 0.033 kJ/mol
- excess molar enthalpy ([2]; x2 = 0.7327): 1.89 ± 0.031 kJ/mol
- excess molar enthalpy ([2]; x2 = 0.7677): 1.74 ± 0.029 kJ/mol
- excess molar enthalpy ([2]; x2 = 0.8042): 1.55 ± 0.026 kJ/mol
- excess molar enthalpy ([2]; x2 = 0.8381): 1.37 ± 0.023 kJ/mol
- excess molar enthalpy ([2]; x2 = 0.8741): 1.13 ± 0.019 kJ/mol
- excess molar enthalpy ([2]; x2 = 0.909): 0.896 ± 0.016 kJ/mol
- excess molar enthalpy ([2]; x2 = 0.9409): 0.619 ± 0.012 kJ/mol
- excess molar enthalpy ([2]; x2 = 0.9721): 0.315 ± 0.0075 kJ/mol
